Patent US20220249597A1, “MIF INHIBITORS AND METHODS OF USE THEREOF” (The Johns Hopkins University, priority 2016, published 2022)
{Biotin} = biotin label

Columns and labels:
[1] = molecular target: T1, MIF (Homo sapiens, UniProt P14174); assay: MIF nuclease assay with small DNA substrates; assay type: biochemical; parameters: GST (N, cleaved yes); made in house; host or cells: Escherichia coli; key to Endo-Nuclease Activity / Exo-Nuclease Activity: Y:yes; N:no; conditions: for Endo-Nuclease Activity / Exo-Nuclease Activity: MIF on the listed DNA substrate; for MIF cleavage of DNA substrate: single or double stranded substrates, ds substrates MIF 1-4 μM
T1 sequence (P14174 2-115 limits assumed): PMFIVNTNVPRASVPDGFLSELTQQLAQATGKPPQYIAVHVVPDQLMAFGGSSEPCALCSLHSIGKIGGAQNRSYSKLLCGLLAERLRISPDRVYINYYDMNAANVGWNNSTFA
From the text: (§1) Human endoG (NM_004435), cyclophilin A (NM_021130), mouse AIF (NM_012019), human MIF (NM_002415) cDNA and their variants were subcloned into glutathione S-transferase (GST)-tagged pGex-6P-1 vector (GE Healthcare) by EcoRI and XhoI restriction sites and verified by sequencing. The protein was expressed and purified from Escherichia coli by glutathione Sepharose. The GST tag was subsequently proteolytically removed for the nuclease assay. MIF point mutants were constructed by polymerase chain reaction (PCR) and verified by sequencing. The purity of MIF proteins that were used in the nuclease assays was further confirmed by mass spectrometry. MIF proteins purified by FPLC were also used in the nuclease assays and no obvious difference was observed between FPLC MIF and non-FPLC MIF proteins. GST protein was used as a negative control in the nuclease assay.

[2] = molecular target: T1, MIF; assay: Electrophoretic mobility shift assay (EMSA) of MIF with biotin-labeled DNA substrates; assay type: binding; parameters: GST (N, cleaved yes); made in house; host or cells: Escherichia coli; conditions: 5′ biotin labeled single stranded substrates, 10 mM Mg2+
Method: EMSA assay was performed using LightShift Chemiluminescent EMSA kit (Thermo Scientific) following the manufactures instruction. Briefly, purified MIF protein (2 μM) was incubated with biotin-labeled DNA substrates (10 nM) in the binding buffer containing 10 mM MgCl2 for 30 min on ice. Then samples were separated on 6% retardation polyacrylamide followed by electrophoretic transfer to nylon membrane.
as §1

[3] = molecular target: T1, MIF; conditions: Mg2+ 10 mM with EDTA 50 mM or Ca2+ 2 mM with EDTA 25 mM
Method: (A) In vitro MIF nuclease assay using pcDNA as substrate. […] (C) Pulse-field gel electrophoresis assay of MNNG-induced DNA damage in MIF deficient HeLa cells and wild type HeLa cells treated with or without DPQ (30 μM) or ISO-1 (100 μM).
The reaction was terminated with loading buffer containing 10 mM EDTA and incubation on ice. […] Small DNA substrates were separated on 15% or 25% TBE-urea polyacrylamide (PAGE) gel or 20% TBE PAGE gel. Then gel was stained with 0.5 μg/ml Ethidium Bromide (EtBr) followed by electrophoretic transfer to nylon membrane. Then, Biotin-labeled DNA is further detected by chemiluminescence using Chemiluminescent Nucleic Acid Detection Module (Thermo Scientific).

[4] = system: HeLa cells; assay: Pulse-field gel electrophoresis assay of MNNG-induced DNA damage in HeLa cells; assay type: cell-based, human; conditions: DPQ 30 μM; ISO-1 100 μM
From the text: FIGS. 2A-2D. FIG. 2. MIF is a novel nuclease that cleaves genomic DNA.

Row | Compound | Endo-Nuclease Activity [1] | Exo-Nuclease Activity [1] | MIF binding to ssDNA substrate (DNA/MIF complex formation) [2] | Effect on MIF nuclease activity against human genomic DNA [3] | Effect on MNNG induced DNA damage / DNA cleavage [4] | MIF cleavage of DNA substrate [1]
1 | 3F1: 5′ biotin ssDNA MIF substrate, SEQ ID NO: 12 (DNA AAAAAAAAAACAAGTAGCTGGGATTACAGG; DNA, 5' {Biotin}, backbone and methylation of C not given here) | Y | Y | clearly binds |  |  | 
2 | O=C(O)CN(CCN(CC(=O)O)CC(=O)O)CC(=O)O [EDTA] |  |  |  | blocks MIF's nuclease activity |  | 
3 | COC(=O)CC1CC(c2ccc(O)cc2)=NO1 (stereo not drawn) [ISO-1] |  |  |  |  | fails to prevent MNNG induced DNA damage | 
4 | BS2: 5′ biotin ssDNA MIF substrate, SEQ ID NO: 96 (DNA TGGGATTACAGGCGTGAGCCACCACGCCC; DNA, 5' {Biotin}, backbone and methylation of C not given here) | Y | Y |  |  |  | 
5 | L3: 5′ biotin non-related sequence with stem loop like structure, SEQ ID NO: 13 (DNA ACCTAAATGCTAGAGCTCGCTGATCAGCCT; DNA, 5' {Biotin}, backbone and methylation of C not given here) | Y | Y | weakly binds |  |  | cleaved by MIF, but with less efficiency
6 | LF: 5′ biotin ssDNA MIF substrate, SEQ ID NO: 7 (DNA AAAAAAACTCAGCCTCCCAAGTAGCTGGGA; DNA, 5' {Biotin}, backbone and methylation of C not given here) | N | N | no obvious effect on the DNA/MIF complex formation |  |  | 
7 | PA^30: 5′ biotin-poly A, SEQ ID NO: 9 | N | Y | fails to bind |  |  | cleave
8 | RF: 5′ biotin ssDNA MIF substrate, SEQ ID NO: 8 (DNA TCCCAAGTAGCTGGGATTACAGGAAAAAAA; DNA, 5' {Biotin}, backbone and methylation of C not given here) | Y | Y | reduces the DNA-MIF binding |  |  | 
9 | SL: 5′ biotin ssDNA MIF substrate, SEQ ID NO: 6 (DNA CCTGTAATCCCAAGTAGCTGGGATTACAGG; DNA, 5' {Biotin}, backbone and methylation of C not given here) | N | N |  |  |  | 
10 | m2: 5′ biotin ssDNA MIF substrate, SEQ ID NO: 79 (DNA CTCAGCCTCCAAAAAAAAAAGGATTACAGG; DNA, 5' {Biotin}, backbone and methylation of C not given here) | Y | Y |  |  |  | 
11 | m3: 5′ biotin ssDNA MIF substrate, SEQ ID NO: 80 (DNA CTCAGCCTCCCAAGTAGCTGAAAAAAAAAA; DNA, 5' {Biotin}, backbone and methylation of C not given here) | Y | Y |  |  |  | 
12 | m4: 5′ biotin ssDNA MIF substrate, SEQ ID NO: 81 (DNA CTCAGCCAAAAAAATAGCTGGGATTACAGG; DNA, 5' {Biotin}, backbone and methylation of C not given here) | Y | Y |  |  |  | 
13 | m5: 5′ biotin ssDNA MIF substrate, SEQ ID NO: 82 (DNA CTCAGCCTCCCAAAAAAAAGGGATTACAGG; DNA, 5' {Biotin}, backbone and methylation of C not given here) | Y | Y |  |  |  | 
14 | m6: 5′ biotin ssDNA MIF substrate, SEQ ID NO: 83 (DNA CTCAAAAAAACAAGTAGCTGGGATTACAGG; DNA, 5' {Biotin}, backbone and methylation of C not given here) | Y | Y |  |  |  | 
15 | m7: 5′ biotin ssDNA MIF substrate, SEQ ID NO: 84 (DNA AAAAGCCTCCCAAGTAGCTGGGATTACAGG; DNA, 5' {Biotin}, backbone and methylation of C not given here) | Y | Y |  |  |  | 
16 | m8: 5′ biotin ssDNA MIF substrate, SEQ ID NO: 85 (DNA CTCAAAATCCCAAAAAAAAGGGATTACAGG; DNA, 5' {Biotin}, backbone and methylation of C not given here) | Y | Y |  |  |  | 
17 | m9: 5′ biotin ssDNA MIF substrate, SEQ ID NO: 86 (DNA CAAGTAGCTGCTCAGCCTCCGGATTACAGG; DNA, 5' {Biotin}, backbone and methylation of C not given here) | Y | Y |  |  |  | 
18 | m10: 5′ biotin ssDNA MIF substrate, SEQ ID NO: 87 (DNA CTCAGCCTCCGGATTACAGGCAAGTAGCTG; DNA, 5' {Biotin}, backbone and methylation of C not given here) | Y | Y |  |  |  | 
19 | m11: 5′ biotin ssDNA MIF substrate, SEQ ID NO: 88 (DNA CTCAGCCTCCCAAGTAAAAGGGATTACAGG; DNA, 5' {Biotin}, backbone and methylation of C not given here) | Y | Y |  |  |  | 
20 | m12: 5′ biotin ssDNA MIF substrate, SEQ ID NO: 89 (DNA CTCAGCCTCCCAAGTAAATGGGATTACAGG; DNA, 5' {Biotin}, backbone and methylation of C not given here) | Y | Y |  |  |  | 
21 | m14: 5′ biotin ssDNA MIF substrate, SEQ ID NO: 90 (DNA CTCAGCCTCCCAAGTAAACGGGATTACAGG; DNA, 5' {Biotin}, backbone and methylation of C not given here) | Y | Y |  |  |  | 
22 | m15: 5′ biotin ssDNA MIF substrate, SEQ ID NO: 91 (DNA CTCAGCCTCCCAAGTAGCAGGGATTACAGG; DNA, 5' {Biotin}, backbone and methylation of C not given here) | Y | Y |  |  |  | 
23 | m16: 5′ biotin ssDNA MIF substrate, SEQ ID NO: 92 (DNA CTCAGCCTCCCTTGTAGCTGGGATTACAGG; DNA, 5' {Biotin}, backbone and methylation of C not given here) | Y | Y |  |  |  | 
24 | m17: 5′ biotin ssDNA MIF substrate, SEQ ID NO: 93 (DNA CTCAAAATCCCAAGTAGCTGGGATTACAGG; DNA, 5' {Biotin}, backbone and methylation of C not given here) | Y | Y |  |  |  | 
25 | m18: 5′ biotin ssDNA MIF substrate, SEQ ID NO: 94 (DNA CTCAATTTCCCAAGTAGCTGGGATTACAGG; DNA, 5' {Biotin}, backbone and methylation of C not given here) | Y | Y |  |  |  | 
26 | m20: 5′ biotin ssDNA MIF substrate, SEQ ID NO: 95 (DNA AAAAATCTCAGCCTCCCAAGTAGCTGGGAT; DNA, 5' {Biotin}, backbone and methylation of C not given here) | Y | Y |  |  |  | 
